Experimental data taken from patent US5719278A, “Tricyclic benzazepine vasopressin antagonists” (American Cyanamid Company, priority 1996, dated 1998).

Key:
Vasopressin V2 = Vasopressin V2 Antagonist Activity in Conscious Hydrated Rats; assay type: in vivo, rat; details: 10 mg/kg orally, N = 2, AVP 0.4 μg/kg intraperitoneally
Description: Vasopressin V2 Antagonist Activity in Conscious Hyrdated Rats
Conscious hydrated rats are treated with compounds under study from 0.1 to 100 mg/kg orally or vehicle. Two to four rats are used for each compound. One hour later, arginine vasopressin (AVP, antidiuretic hormone, ADH) dissolved in peanut oil is administered at 0.4 μg/kg intraperitoneally. Two rats in each test would not receive arginine vasopressin but only the vehicle (peanut oil) to serve as water-loading control. Twenty minutes later each rat is given 30 mL/kg of deionized water orally by gavage and is placed individually in a metabolic cage equipped with a funnel and a graduated glass cylinder to collect urine for four hours. Urine volume is measured and osmolality analyzed by use of a Fiske One-Ten osmometer (Fiske Assoc., Norwood, Mass. U.S.A.). Urinary sodium, potassium, and chloride are analyzed by use of ion-specific electrodes in a Beckman E3(Electrolyte 3) Analyzer.
In the following results, […] and decreased osmolality relative to AVP-control indicates activity.

Rat Hepatic V1 Receptors = biological target: T1, Rat Hepatic V1 Receptors (Rattus norvegicus, UniProt P30560); test: Binding Assay to Rat Hepatic V1 Receptors; details: Rat Hepatic V1 Receptors (no asterisk)
T1 construct: Rat liver plasma membranes expressing the vasopressin V1 receptor subtypes; from tissue; host or cells: rat liver plasma membranes
Description: Binding Assay to Rat Hepatic V1 Receptors
Rat liver plasma membranes expressing the vasopressin V1 receptor subtypes are isolated by sucrose density gradient according to the method described by Lesko et al., (1973). These membranes are quickly suspended in 50.0 mM Tris.HCl buffer, pH 7.4, containing 0.2% bovine serum albumin (BSA) and 0.1 mM phenylmethylsulfonylfluoride (PMSF) and kept frozen at -70° C. until used in subsequent binding experiments. For binding experiments, the following is added to the wells of a ninety-six well format microtiter plate: 100 μl of 100.0 mM Tris.HCl buffer containing 10.0 mM MgCl2, 0.2% heat inactivated BSA and a mixture of protease inhibitors: leupeptin, 1.0 mg %; aprotinin, 1.0 mg %, 1,10-phenanthroline,2.0 mg %; trypsin inhibitor, 10.0 mg % and 0.1 mM PMSF, 20.0 μl of [phenylalanyl-3,4,5-^3 H] vasopressin (S.A. 45.1 Ci/mmole) at 0.8 nM, and the reaction initiated by the addition of 80 μl of tissue membranes containing 20 μg of tissue protein. The plates are kept undisturbed on the bench top at room temperature for 120 min. to reach equilibrium. Non-specific samples are assayed in the presence of 0.1 μM of the unlabeled antagonist phenylalanylvasopressin, added in 20.0 μl volume to a final incubation volume of 200 μl. Upon completion of binding, the content of each well is filtered off, using a Brandel® cell Harvester (Gaithersburg, Md.). The radioactivity trapped on the filter disk by the ligand-receptor complex is assessed by liquid scintillation counting in a Packard LS Counter, with an efficiency of 65% for tritium. The data are analyzed for IC50 values by the LUNDON-2 program for competition (LUNDON SOFTWARE, Ohio).

oxytocin receptors = biological target: T2, oxytocin receptors (Rattus norvegicus, UniProt P70536); test: Oxytocin Receptor Binding; parameters: species or system Sprague-Dawley rat; details: for IC50: 1.0 nM [^3 H]OT, 60 min., 22° C.
T2 construct: The uteri are dissected out, cleaned of fat and connective tissues; from tissue; host or cells: uterus of DES-treated female Sprague-Dawley rats
T2 sequence (P70536 1-388): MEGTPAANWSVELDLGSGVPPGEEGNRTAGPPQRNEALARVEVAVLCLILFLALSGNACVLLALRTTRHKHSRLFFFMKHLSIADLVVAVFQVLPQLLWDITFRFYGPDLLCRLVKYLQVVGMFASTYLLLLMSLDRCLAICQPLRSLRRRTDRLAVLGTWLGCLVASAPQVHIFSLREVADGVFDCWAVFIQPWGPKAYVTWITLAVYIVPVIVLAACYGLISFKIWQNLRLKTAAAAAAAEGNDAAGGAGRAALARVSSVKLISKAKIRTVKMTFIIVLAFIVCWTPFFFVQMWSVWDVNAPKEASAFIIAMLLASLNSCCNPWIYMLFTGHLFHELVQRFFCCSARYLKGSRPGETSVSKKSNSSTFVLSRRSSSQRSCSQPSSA
Description: Oxytocin Receptor Binding
Female Sprague-Dawley rats weighing approximately 200-250 g are injected intramuscularly (i.m.) with 0.3 mg/kg of body weight of diethylstilbestrol (DES). The rats are sacrificed 18 hours later under pentobarbital anesthesia. The uteri are dissected out, cleaned of fat and connective tissues and rinsed in 50 ml of normal saline. The tissue pooled from six rats is homogenized in 50 ml of […] TriS.HCl, containing 0.5 mM dithiothreitol and 1.0 mM EDTA, adjusted to pH 7.4, using a polytron at setting 6 with three passes of 10 sec each. The homogenate is passed through two (2) layers of cheesecloth and the filtrate contrifuged at 1000×g for 10 min. The clear supernatant is removed and recentrifuged at 165,000×g for 30 min. The resulting pellet containing the oxytocin receptors is resuspended in 50.0 mM Tris.HCl containing 5.0 mM MgCl2 at pH 7.4, to give a protein concentration of 2.5 mg/ml of tissue suspension. This preparation is used in subsequent binding assays with [^3 H]Oxytocin.
Binding of 3,5-[^3 H]Oxytocin ([^3 H]OT) to its receptors is done in microtiter plates using [^3 H]OT, at various concentrations, in an assay buffer of 50.0 mM Tris.HCl, pH 7.4 and containing 5.0 mM MgCl2, and a mixture of protease inhibitors: BSA, 0.1 mg; aprotinin, 1.0 mg; 1,10-phenanthroline, 2.0 mg; […], 10.0 mg; and PMSF, 0.3 mg per 100 ml of buffer solution. Non-specific binding is determined in the presence of 1.0 uM unlabeled OT. The binding reaction is terminated after 60 min., at 22° C., by rapid filtration through glass fiber filters using a Brandel® cell harvester (Biomedical Research and Development Laboratories, Inc., Gaithersburg, Md.). Competition experiments are conducted at equilibrium using 1.0 nM [^3 H]OT and varying the concentration of the displacing agents. The concentrations of agent displacing 50% of [^3 H]OT at its sites (IC50) are calculated by a computer assisted LUNDON-2 program (LUNDON SOFTWARE INC., Ohio, U.S.A.).

[1] = biological target: T3, Rat Kidney Medullary V2 Receptors (Rattus norvegicus, UniProt Q00788); test: Binding Assay to Rat Kidney Medullary V2 Receptors; details: Rat Kidney Medullary V2 Receptors (no asterisk)
T3 construct: Medullary tissues from rat kidneys are dissected out; from tissue; host or cells: rat kidney medulla membranes
Description: Binding Assay to Rat Kidney Medullary V2 Receptors
Medullary tissues from rat kidneys are dissected out, cut into small pieces and let soak in a […] sodium chloride solution containing 1.0 mM EDTA with many changes of the liquid phase, until the solution is clear of blood. The tissue is homogenized in a 0.25M sucrose solution containing 1.0 mM EDTA and 0.1 mM PMSF using a Potter-Elvehjem homogenizer with a teflon pestle. The homogenate is filtered through several layers (4 layers) of cheese cloth. The filtrate is rehomogenized using a dounce homogenizer, with a tight fitting pestle. The final homogenate is contrifuged at 1500×g for 15 min. The nuclear pellet is discarded and the supernatant fluid recentrifuged at 40,000×g for 30 min. The resulting pellet formed contains a dark inner part with the exterior, slightly pink. The pink outer part is suspended in a small amount of 50.0 mM Tris.HCl buffer, pH 7.4. The protein content is determined by the Lowry's method (Lowry et al, J. Biol. Chem., 1953). The membrane suspension is stored at -70° C., in 50.0 mM Tris.HCl, containing 0.2% inactivated BSA and 0.1 mM PMSF in aliquots of 1.0 ml containing 10.0 mg protein per ml of suspension until use in subsequent binding experiments.
For binding experiments, the following is added in μl volume to wells of a 96 well format of a microtiter plate: 100.0 μl of 100.0 mM Tris.HCl buffer containing 0.2% heat inactivated BSA, 10.0 mM MgCl2 and a mixture of protease inhibitors: leupeptin, 1.0 mg %; aprotinin, 1.0 mg %; 1,10-phenanthroline, 2.0 mg %; trypsin inhibitor, 10.0 mg % and 0.1 mM PMSF, 20.0 μl of [^3 H]Arginine^8, vasopressin (S.A. 75.0 Ci/mmole) at 0.8 nM and the reaction initiated by the addition of 80.0 μl of tissue membranes (200.0 μg tissue protein). The plates are left undisturbed on the bench top for 120 min. to reach equilibrium. Non-specific binding is assessed in the presence of 1.0 μM of unlabeled ligand, added in 20 μl volume. For test compounds, these are solubilized in 50% dimethylsulfoxide (DMSO) and added in 20.0 μl volume to a final incubation volume of 200 μl. Upon completion of binding, the content of each well is filtered off, using a Brandel® cell Harvester (Gaithersburg, Md.). The radioactivity trapped on the filter disk by the ligand-receptor complex is assessed by liquid scintillation counting in a Packard LS Counter, with an efficiency of 65% for tritium. The data are analyzed for IC50 values by the LUNDON-2 program for competition (LUNDON SOFTWARE, Ohio).

T1 sequence (P30560 whole entry): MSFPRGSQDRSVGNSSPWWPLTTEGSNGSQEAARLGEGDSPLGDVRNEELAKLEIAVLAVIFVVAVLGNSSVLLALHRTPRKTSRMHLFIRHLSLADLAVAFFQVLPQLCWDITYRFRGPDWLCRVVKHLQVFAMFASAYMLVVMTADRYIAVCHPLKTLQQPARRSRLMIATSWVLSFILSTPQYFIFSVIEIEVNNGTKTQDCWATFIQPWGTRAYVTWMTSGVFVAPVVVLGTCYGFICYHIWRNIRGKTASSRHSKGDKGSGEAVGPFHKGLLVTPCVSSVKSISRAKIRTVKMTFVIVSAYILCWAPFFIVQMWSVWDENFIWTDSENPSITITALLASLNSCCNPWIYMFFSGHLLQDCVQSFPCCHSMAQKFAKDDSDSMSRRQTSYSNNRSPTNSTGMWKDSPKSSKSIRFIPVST
T3 sequence (Q00788 whole entry): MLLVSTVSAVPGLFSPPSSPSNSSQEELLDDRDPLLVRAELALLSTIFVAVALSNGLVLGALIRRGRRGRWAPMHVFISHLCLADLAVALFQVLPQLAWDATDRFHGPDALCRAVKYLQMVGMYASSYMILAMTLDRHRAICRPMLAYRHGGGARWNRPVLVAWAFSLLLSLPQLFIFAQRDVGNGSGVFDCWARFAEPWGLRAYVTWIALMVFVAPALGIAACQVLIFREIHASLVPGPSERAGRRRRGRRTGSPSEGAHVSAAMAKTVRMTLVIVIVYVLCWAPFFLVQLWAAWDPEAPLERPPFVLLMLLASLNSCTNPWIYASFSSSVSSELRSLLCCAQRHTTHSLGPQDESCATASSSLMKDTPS

IC50 (Rat Hepatic V1 Receptors) | IC50 (oxytocin receptors) | inhibition at 10 µM (oxytocin receptors) | IC50 [1] | Structure (SMILES) | Urine Vol. (ml/4 hrs.) (Vasopressin V2) | Osmolality (mOsm/kg) (Vasopressin V2; urine)
1.7 µM | 1300 nM | 91% | – | Cc1ccc(F)cc1C(=O)Nc1ccc(C(=O)N2CCc3cn[nH]c3-c3sccc32)cc1 [Example 2, N-[4-[(4,5-Dihydropyrazolo[3,4-d]thieno[3,2-b]azepin-6(1H)-yl)carbonyl]phenyl]-5-fluoro-2methylbenzamide] | 17.8 ml/4 hrs. | 429 mOsm/kg
4.7 µM | 1700 nM | 94% | 0.23 µM | Cn1cc2c(n1)-c1sccc1N(C(=O)c1ccc(NC(=O)C3CCCCC3)cc1)CC2 [Example 6, N-[4-[[4,5-Dihydro-2-methylpyrazolo[3,4-d]thieno[3,2-b]-azepin-6(2H)-yl]carbonyl]phenyl]cyclohexane carboxamide] | – | –
